Assay results published in patent publication US12728177B2, “Disinfectant composition with rapid antiviral efficacy” (priority 2015, dated 2026).

Legend:
[1] = tested on: Bacteriophage Phi X174 (ATCC 13706-81); experiment: Virucidal infectivity (percent reduction in virus infectivity, E. coli outgrowth with resazurin dye); conditions: 10-minute exposure;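 note: exposed phage diluted into broth, E. coli outgrowth followed 16-24 h at 37 °C by fluorescence rate, unexposed phage set as 100% signal, phage-free as 0%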
Procedure: Bacteriophage Phi X174 (ATCC 13706-81) was added 1:10 (−108 plaque forming units (PFU) per sample) into a solution containing the composition of interest. Following a 10-minute exposure, the sample was transferred 1:10 into Tryptic Soy Broth (TSB). Following 10 minutes in TSB, a second 1:10 dilution was completed into an outgrowth solution for the Phi X174 host (E. coli ATCC 13706) that contained TSB and a resazurin dye. E. coli outgrowth was then monitored at 37° C. for 16-24 hours and the rate of fluorescence development was calculated. The rate observed when Phi X174 was not exposed to any composition represented a 100% Phi X174 signal. The rate observed without Phi X174 present represented a “0% signal.” The rate obtained following Phi X174 exposure to a given composition was compared to the signal obtained with no exposure to calculate the “percent reduction in virus infectivity.”

[2] = 25° C.; cited from earlier work
[3] = secondary agent 2-7 mM + Maleic Acid 3 mM
[4] = secondary agent 2-7 mM + Phosphonc Acid 50-150 mM
[5] = secondary agent 2-7 mM + Sulfosuccinic Acid 10-32 mM

## O=C(O)CC(C(=O)O)S(=O)(=O)O (stereo not shown) [Sulfosuccinic Acid]
[1]; Sulfosuccinic Acid 10-32 mM, no secondary agent
  reduction in virus infectivity, Primary Antiviral Agent without secondary agent (None): 0-75%
[2]
  pka1 (first acid dissociation constant): −1.65

## [Cl-].[Cl-].[Zn+2] [Zinc Chloride]
[1]; agent alone 2 mM
  % Reduction, Secondary Antiviral Agent Alone: 5%
[1]; agent alone 6 mM
  % Reduction, Secondary Antiviral Agent Alone: 0%
[1]; agent alone 18 mM
  % Reduction, Secondary Antiviral Agent Alone: 0%
[1]; agent alone 53 mM
  % Reduction, Secondary Antiviral Agent Alone: 0%
[1]; secondary agent 53 mM + Maleic Acid 3 mM
  reduction in virus infectivity, in Combination with Maleic Acid (3 mM): 0%
[1]; secondary agent 53 mM + Phosphonc Acid 50-150 mM
  reduction in virus infectivity, in Combination with Phosphonc Acid (50-150 mM): 88%
[1]; secondary agent 53 mM + Sulfosuccinic Acid 10-32 mM
  reduction in virus infectivity, in Combination with Sulfosuccinic Acid (10-32 mM): 99%
[1]; [3]
  reduction in virus infectivity, in Combination with Maleic Acid (3 mM): 99%
[1]; [4]
  reduction in virus infectivity, in Combination with Phosphonc Acid (50-150 mM): 10%
[1]; [5]
  reduction in virus infectivity, in Combination with Sulfosuccinic Acid (10-32 mM): 99%
[1]; secondary agent 6-13 mM + Maleic Acid 3 mM
  reduction in virus infectivity, in Combination with Maleic Acid (3 mM): 99%
[1]; secondary agent 6-13 mM + Phosphonc Acid 50-150 mM
  reduction in virus infectivity, in Combination with Phosphonc Acid (50-150 mM): 28%
[1]; secondary agent 6-13 mM + Sulfosuccinic Acid 10-32 mM
  reduction in virus infectivity, in Combination with Sulfosuccinic Acid (10-32 mM): 99%
[1]; secondary agent 18-26 mM + Maleic Acid 3 mM
  reduction in virus infectivity, in Combination with Maleic Acid (3 mM): 99%
[1]; secondary agent 18-26 mM + Sulfosuccinic Acid 10-32 mM
  reduction in virus infectivity, in Combination with Sulfosuccinic Acid (10-32 mM): 99%

## [Cl][Fe]([Cl])[Cl] [iron (iii) chloride]
[1]; agent alone 8 mM
  % Reduction, Secondary Antiviral Agent Alone: 3%
[1]; agent alone 17 mM
  % Reduction, Secondary Antiviral Agent Alone: 18%
[1]; agent alone 33 mM
  % Reduction, Secondary Antiviral Agent Alone: 21%
[1]; agent alone 66 mM
  % Reduction, Secondary Antiviral Agent Alone: 32%
[1]; secondary agent 8 mM + Maleic Acid 3 mM
  reduction in virus infectivity, in Combination with Maleic Acid (3 mM): 0%
[1]; secondary agent 8 mM + Sulfosuccinic Acid 10-32 mM
  reduction in virus infectivity, in Combination with Sulfosuccinic Acid (10-32 mM): 99%
[1]; secondary agent 17 mM + Maleic Acid 3 mM
  reduction in virus infectivity, in Combination with Maleic Acid (3 mM): 23%
[1]; secondary agent 17 mM + Sulfosuccinic Acid 10-32 mM
  reduction in virus infectivity, in Combination with Sulfosuccinic Acid (10-32 mM): 99%
[1]; secondary agent 33 mM + Maleic Acid 3 mM
  reduction in virus infectivity, in Combination with Maleic Acid (3 mM): 0%
[1]; secondary agent 33 mM + Sulfosuccinic Acid 10-32 mM
  reduction in virus infectivity, in Combination with Sulfosuccinic Acid (10-32 mM): 99%
[1]; secondary agent 66 mM + Maleic Acid 3 mM
  reduction in virus infectivity, in Combination with Maleic Acid (3 mM): 0%
[1]; secondary agent 66 mM + Sulfosuccinic Acid 10-32 mM
  reduction in virus infectivity, in Combination with Sulfosuccinic Acid (10-32 mM): 99%

## Aluminum chlorohydrate
[1]; agent alone 2 mM
  % Reduction, Secondary Antiviral Agent Alone: 1%
[1]; agent alone 6 mM
  % Reduction, Secondary Antiviral Agent Alone: 3%
[1]; agent alone 18 mM
  % Reduction, Secondary Antiviral Agent Alone: 2%
[1]; agent alone 55 mM
  % Reduction, Secondary Antiviral Agent Alone: 9%
[1]; secondary agent 55 mM + Maleic Acid 3 mM
  reduction in virus infectivity, in Combination with Maleic Acid (3 mM): 99%
[1]; secondary agent 55 mM + Phosphonc Acid 50-150 mM
  reduction in virus infectivity, in Combination with Phosphonc Acid (50-150 mM): 68%
[1]; secondary agent 55 mM + Sulfosuccinic Acid 10-32 mM
  reduction in virus infectivity, in Combination with Sulfosuccinic Acid (10-32 mM): 99%
[1]; [3]
  reduction in virus infectivity, in Combination with Maleic Acid (3 mM): 17%
[1]; [4]
  reduction in virus infectivity, in Combination with Phosphonc Acid (50-150 mM): 43%
[1]; [5]
  reduction in virus infectivity, in Combination with Sulfosuccinic Acid (10-32 mM): 99%
[1]; secondary agent 6-14 mM + Maleic Acid 3 mM
  reduction in virus infectivity, in Combination with Maleic Acid (3 mM): 28%
[1]; secondary agent 6-14 mM + Phosphonc Acid 50-150 mM
  reduction in virus infectivity, in Combination with Phosphonc Acid (50-150 mM): 34%
[1]; secondary agent 6-14 mM + Sulfosuccinic Acid 10-32 mM
  reduction in virus infectivity, in Combination with Sulfosuccinic Acid (10-32 mM): 99%
[1]; secondary agent 18-27 mM + Maleic Acid 3 mM
  reduction in virus infectivity, in Combination with Maleic Acid (3 mM): 9%
[1]; secondary agent 18-27 mM + Phosphonc Acid 50-150 mM
  reduction in virus infectivity, in Combination with Phosphonc Acid (50-150 mM): 29%
[1]; secondary agent 18-27 mM + Sulfosuccinic Acid 10-32 mM
  reduction in virus infectivity, in Combination with Sulfosuccinic Acid (10-32 mM): 99%

## Laureth-9 [Hetoxol LA-9]
[1]; agent alone 6 mM
  % Reduction, Secondary Antiviral Agent Alone: 0%
[1]; agent alone 17 mM
  % Reduction, Secondary Antiviral Agent Alone: 0%
[1]; agent alone 50 mM
  % Reduction, Secondary Antiviral Agent Alone: 0%
[1]; agent alone 150 mM
  % Reduction, Secondary Antiviral Agent Alone: 2%
[1]; secondary agent 0.2 mM + Maleic Acid 3 mM
  reduction in virus infectivity, in Combination with Maleic Acid (3 mM): 9%
[1]; secondary agent 0.2 mM + Phosphonc Acid 50-150 mM
  reduction in virus infectivity, in Combination with Phosphonc Acid (50-150 mM): 57%
[1]; secondary agent 0.2 mM + Sulfosuccinic Acid 10-32 mM
  reduction in virus infectivity, in Combination with Sulfosuccinic Acid (10-32 mM): 5%
[1]; secondary agent 1 mM + Maleic Acid 3 mM
  reduction in virus infectivity, in Combination with Maleic Acid (3 mM): 65%
[1]; secondary agent 1 mM + Phosphonc Acid 50-150 mM
  reduction in virus infectivity, in Combination with Phosphonc Acid (50-150 mM): 62%
[1]; secondary agent 1 mM + Sulfosuccinic Acid 10-32 mM
  reduction in virus infectivity, in Combination with Sulfosuccinic Acid (10-32 mM): 0%
[1]; secondary agent 5 mM + Maleic Acid 3 mM
  reduction in virus infectivity, in Combination with Maleic Acid (3 mM): 0%
[1]; secondary agent 5 mM + Phosphonc Acid 50-150 mM
  reduction in virus infectivity, in Combination with Phosphonc Acid (50-150 mM): 11%
[1]; secondary agent 5 mM + Sulfosuccinic Acid 10-32 mM
  reduction in virus infectivity, in Combination with Sulfosuccinic Acid (10-32 mM): 0%
[1]; secondary agent 27 mM + Maleic Acid 3 mM
  reduction in virus infectivity, in Combination with Maleic Acid (3 mM): 0%
[1]; secondary agent 27 mM + Phosphonc Acid 50-150 mM
  reduction in virus infectivity, in Combination with Phosphonc Acid (50-150 mM): 10%
[1]; secondary agent 27 mM + Sulfosuccinic Acid 10-32 mM
  reduction in virus infectivity, in Combination with Sulfosuccinic Acid (10-32 mM): 0%
